“And” between values parts separate entries of the source, which are not always exact repeats. Identical values can stand only once. In the oligonucleotide strings, read from the 5' end, every base follows the letter of its sugar. An asterisk marks phosphorothioate; unmarked linkages are phosphodiester. Other units and linkages are bracketed, terminal groups are in braces. A string of capitals states the bases alone. e = 2'-O-(2-methoxyethyl) (MOE); [5mC] = 5-methylcytosine; d = 2'-deoxy (DNA)
Tested on: human TGF-beta1 mRNA
Experiment: Antisense inhibition of human TGF-beta1 mRNA in HuVEC cells, single 10 nM dose, Lipofectamine 2000 (Example 2)
Type: cell-based
Details: for % inhibition: 10 nM oligonucleotide, HuVEC, relative to untreated control cells, gapmers targeted to SEQ ID NO: 1; for inhibition of a TGF-beta1 mRNA: threshold lists of Oligo IDs, 10 nM
Procedure: Antisense oligonucleotides targeted to a TGF-beta1 nucleic acid were tested for their effects on TGF-beta1 mRNA in vitro. Cultured HuVEC cells at a density of 5,000 cells per well were transfected using Lipofectamine™ 2000 reagent with 10 nM antisense oligonucleotide for 4 hours. After a recovery period of approximately 24 hours, RNA was isolated from the cells and TGF-beta1 mRNA levels were measured by quantitative real-time PCR. TGF-beta1 mRNA levels were adjusted according to total RNA content, as measured by RIBOGREEN®. Results are presented as percent inhibition of TGF-beta1, relative to untreated control cells.
The chimeric antisense oligonucleotides in Tables 1 and 2 were designed as 2-13-5 MOE gapmers. Antisense molecules with this motif targeting TGF-beta1 are unique, and represent a novel chemical structure for an ASO directed against this target. The gapmers are 20 nucleotides in length, wherein the central gap segments are comprised of thirteen 2′-deoxynucleotides and are flanked on the 5′ side by wings comprising two nucleotides each and on the 3′ side by wings comprising five nucleotides each. Each nucleotide in the 5′ wing segment and each nucleotide in the 3′ wing segment has a 2′-MOE modification. The internucleoside linkages throughout each gapmer are phosphorothioate (P═S) linkages. All cytosine residues throughout each gapmer are 5-methylcytosines. “Target start site” indicates the 5′-most nucleotide to which the gapmer is targeted. “Target stop site” indicates the 3′-most nucleotide to which the gapmer is targeted. Each gapmer listed in Table 1 is targeted to SEQ ID NO: 1 (GENBANK Accession No. NM_000660.3). Each gapmer listed in Table 2 is targeted to SEQ ID NO: 2 (GENBANK Accession No. NT 011109.15 truncated from 14103000 to […]).

| Substance | % inhibition [%] | inhibition of a TGF-beta1 mRNA |
| --- | --- | --- |
| 413967 (antisense eG*eA*dT*dG*dG*d[5mC]*d[5mC]*d[5mC]*dA*dG*dG*dG*d[5mC]*dG*d[5mC]*eG*eA*eA*eG*eG) [compound 413967] | 64 | 60% |
| 413968 (antisense eG*eA*dG*dA*dT*dG*dG*d[5mC]*d[5mC]*d[5mC]*dA*dG*dG*dG*d[5mC]*eG*e[5mC]*eG*eA*eA) [compound 413968] | 55 |  |
| 413969 (antisense e[5mC]*eG*dA*d[5mC]*dT*d[5mC]*d[5mC]*dT*dT*d[5mC]*d[5mC]*dT*d[5mC]*d[5mC]*dG*e[5mC]*eT*e[5mC]*e[5mC]*eG) [compound 413969] | 53 |  |
| 413971 (antisense eG*eG*d[5mC]*d[5mC]*dT*d[5mC]*dA*dG*dG*d[5mC]*dT*dG*d[5mC]*dT*d[5mC]*e[5mC]*eT*e[5mC]*eG*eG) [compound 413971] | 78 | 60% and 65% and 70% and 75% |
| 413972 (antisense e[5mC]*eT*d[5mC]*dG*dT*d[5mC]*d[5mC]*d[5mC]*dT*d[5mC]*d[5mC]*dT*d[5mC]*d[5mC]*d[5mC]*eG*e[5mC]*eT*e[5mC]*e[5mC]) [compound 413972] | 61 | 60% |
| 413973 (antisense e[5mC]*eA*dA*d[5mC]*dG*dG*dA*dA*dA*dA*dG*dT*d[5mC]*dT*d[5mC]*eA*eA*eA*eA*eG) [compound 413973] | 25 |  |
| 413974 (antisense eG*eG*d[5mC]*dA*dA*d[5mC]*dG*dG*dA*dA*dA*dA*dG*dT*d[5mC]*eT*e[5mC]*eA*eA*eA) [compound 413974] | 69 | 60% and 65% |
| 413975 (antisense eG*e[5mC]*dG*dG*d[5mC]*dA*dA*d[5mC]*dG*dG*dA*dA*dA*dA*dG*eT*e[5mC]*eT*e[5mC]*eA) [compound 413975] | 73 | 60% and 65% and 70% |
| 413976 (antisense e[5mC]*eA*dG*d[5mC]*dG*dG*d[5mC]*dA*dA*d[5mC]*dG*dG*dA*dA*dA*eA*eG*eT*e[5mC]*eT) [compound 413976] | 72 | 60% and 65% and 70% |
| 413977 (antisense e[5mC]*e[5mC]*d[5mC]*dA*dG*d[5mC]*dG*dG*d[5mC]*dA*dA*d[5mC]*dG*dG*dA*eA*eA*eA*eG*eT) [compound 413977] | 57 |  |
| 413978 (antisense e[5mC]*eT*d[5mC]*d[5mC]*d[5mC]*dA*dG*d[5mC]*dG*dG*d[5mC]*dA*dA*d[5mC]*dG*eG*eA*eA*eA*eA) [compound 413978] | 67 | 60% and 65% |
| 413980 (antisense e[5mC]*e[5mC]*dG*dG*d[5mC]*dT*d[5mC]*d[5mC]*d[5mC]*dA*dG*d[5mC]*dG*dG*d[5mC]*eA*eA*e[5mC]*eG*eG) [compound 413980] | 74 | 60% and 65% and 70% |
| 413981 (antisense e[5mC]*eT*d[5mC]*d[5mC]*dG*dG*d[5mC]*dT*d[5mC]*d[5mC]*d[5mC]*dA*dG*d[5mC]*dG*eG*e[5mC]*eA*eA*e[5mC]) [compound 413981] | 71 | 60% and 65% and 70% |
| 413983 (antisense eG*e[5mC]*dG*d[5mC]*d[5mC]*dT*d[5mC]*d[5mC]*dG*dG*d[5mC]*dT*d[5mC]*d[5mC]*d[5mC]*eA*eG*e[5mC]*eG*eG) [compound 413983] | 78 | 60% and 65% and 70% and 75% |
| 413984 (antisense e[5mC]*e[5mC]*dG*d[5mC]*dG*d[5mC]*d[5mC]*dT*d[5mC]*d[5mC]*dG*dG*d[5mC]*dT*d[5mC]*e[5mC]*e[5mC]*eA*eG*e[5mC]) [compound 413984] | 71 | 60% and 65% and 70% |
| 413985 (antisense e[5mC]*e[5mC]*d[5mC]*d[5mC]*dG*d[5mC]*dG*d[5mC]*d[5mC]*dT*d[5mC]*d[5mC]*dG*dG*d[5mC]*eT*e[5mC]*e[5mC]*e[5mC]*eA) [compound 413985] | 66 | 60% and 65% |
| 413986 (antisense eG*eT*d[5mC]*d[5mC]*d[5mC]*d[5mC]*dG*d[5mC]*dG*d[5mC]*d[5mC]*dT*d[5mC]*d[5mC]*dG*eG*e[5mC]*eT*e[5mC]*e[5mC]) [compound 413986] | 69 | 60% and 65% |
| 413987 (antisense eA*eG*dG*dT*d[5mC]*d[5mC]*d[5mC]*d[5mC]*dG*d[5mC]*dG*d[5mC]*d[5mC]*dT*d[5mC]*e[5mC]*eG*eG*e[5mC]*eT) [compound 413987] | 71 | 60% and 65% and 70% |

| Substance | % inhibition [%] | inhibition of a TGF-beta1 mRNA |
| --- | --- | --- |
| 413988 (antisense eA*eA*dG*dT*d[5mC]*d[5mC]*dT*dG*d[5mC]*d[5mC]*dT*d[5mC]*d[5mC]*dT*d[5mC]*eG*e[5mC]*eG*eG*eG) [compound 413988] | 63 | 60% |
| 413989 (antisense eG*eG*d[5mC]*dA*dA*dA*dG*dG*dG*dA*dG*dG*d[5mC]*dG*dG*eT*e[5mC]*eT*eG*eG) [compound 413989] | 41 |  |
| 413990 (antisense eG*e[5mC]*dG*dG*d[5mC]*dA*dA*dA*dG*dG*dG*dA*dG*dG*d[5mC]*eG*eG*eT*e[5mC]*eT) [compound 413990] | 59 |  |
| 413991 (antisense e[5mC]*eG*dG*d[5mC]*dG*dG*d[5mC]*dA*dA*dA*dG*dG*dG*dA*dG*eG*e[5mC]*eG*eG*eT) [compound 413991] | 69 | 60% and 65% |
| 413992 (antisense e[5mC]*e[5mC]*d[5mC]*dG*dG*d[5mC]*dG*dG*d[5mC]*dA*dA*dA*dG*dG*dG*eA*eG*eG*e[5mC]*eG) [compound 413992] | 60 | 60% |
| 413993 (antisense eT*e[5mC]*d[5mC]*d[5mC]*d[5mC]*dG*dG*d[5mC]*dG*dG*d[5mC]*dA*dA*dA*dG*eG*eG*eA*eG*eG) [compound 413993] | 52 |  |
| 413994 (antisense e[5mC]*eG*dT*d[5mC]*d[5mC]*d[5mC]*d[5mC]*dG*dG*d[5mC]*dG*dG*d[5mC]*dA*dA*eA*eG*eG*eG*eA) [compound 413994] | 67 | 60% and 65% |
| 413995 (antisense e[5mC]*e[5mC]*d[5mC]*dG*dA*dG*dG*dG*d[5mC]*dT*dG*dG*dT*d[5mC]*d[5mC]*eG*eG*eA*eA*eT) [compound 413995] | 72 | 60% and 65% and 70% |
| 413996 (antisense eA*eA*dG*dT*d[5mC]*dT*dT*dT*dG*d[5mC]*dG*dG*dG*dA*dG*eG*e[5mC]*e[5mC]*eG*eG) [compound 413996] | 51 |  |
| 413997 (antisense eA*eA*dA*dA*dG*dT*d[5mC]*dT*dT*dT*dG*d[5mC]*dG*dG*dG*eA*eG*eG*e[5mC]*e[5mC]) [compound 413997] | 41 |  |
| 413998 (antisense eG*eG*dA*dA*dA*dA*dG*dT*d[5mC]*dT*dT*dT*dG*d[5mC]*dG*eG*eG*eA*eG*eG) [compound 413998] | 13 |  |
| 413999 (antisense eG*eG*d[5mC]*dT*d[5mC]*dA*dG*dG*dA*dG*dA*d[5mC]*dA*dG*dG*e[5mC]*e[5mC]*eG*eG*eG) [compound 413999] | 72 | 60% and 65% and 70% |
| 414000 (antisense eA*eA*dG*dG*dG*dT*d[5mC]*dT*dA*dG*dG*dA*dT*dG*d[5mC]*eG*e[5mC]*eG*eG*eG) [compound 414000] | 75 | 60% and 65% and 70% and 75% |
| 414001 (antisense e[5mC]*eA*dG*dG*dT*d[5mC]*dG*dG*dA*dG*dA*dG*dA*dG*dA*eT*e[5mC]*e[5mC]*eG*eT) [compound 414001] | 78 | 60% and 65% and 70% and 75% |
| 414002 (antisense eG*eG*dT*dG*dG*dG*dT*dG*dG*dT*d[5mC]*dT*dT*dG*dA*eA*eT*eA*eG*eG) [compound 414002] | 80 | 60% and 65% and 70% and 75% and 80% |
| 414003 (antisense eA*eA*dG*dG*dT*dG*dG*dG*dT*dG*dG*dT*d[5mC]*dT*dT*eG*eA*eA*eT*eA) [compound 414003] | 67 | 60% and 65% |
| 414004 (antisense eA*eG*dA*dA*dG*dG*dT*dG*dG*dG*dT*dG*dG*dT*d[5mC]*eT*eT*eG*eA*eA) [compound 414004] | 70 | 60% and 65% and 70% |
| 414005 (antisense e[5mC]*e[5mC]*dA*dG*dA*dA*dG*dG*dT*dG*dG*dG*dT*dG*dG*eT*e[5mC]*eT*eT*eG) [compound 414005] | 77 | 60% and 65% and 70% and 75% |
